Laboratory results: patent publication US20230157952A1, “METHOD FOR IMPROVING THE STABILITY OF A PHARMACEUTICAL COMPOSITION COMPRISING A HIGH PENETRATION DRUG, AND THE PHARMACEUTICAL COMPOSITION OBTAINED THEREFROM” (Techfields Inc., priority 2020, published 2023)
One block for each compound: values may come before it.

Columns and labels:
[1] = Effect of concentration on the stability of the solution (purity over time); details: in water at 25° C.
[2] = Effect of temperature (and pH) on the stability of the solution (purity); format: physicochemical; details: 7% solution in water

Purity at Day 3 ([1]; 0.01 wt %): 83.8% | Purity at Day 7 ([1]; 0.01 wt %): 73.9% | Purity at Day 14 ([1]; 0.01 wt %): 58.9% | Purity at Day 21 ([1]; 0.01 wt %): 47.6% | Purity at Day 28 ([1]; 0.01 wt %): 38.9% | Purity at hr 0 ([1]; 0.01 wt %): 97.8% | Purity at Day 3 ([1]; 0.1 wt %): 94.7% | Purity at Day 7 ([1]; 0.1 wt %): 90.6% | Purity at Day 14 ([1]; 0.1 wt %): 83.5% | Purity at Day 21 ([1]; 0.1 wt %): 75.7% | Purity at Day 28 ([1]; 0.1 wt %): 65.5% | Purity at hr 0 ([1]; 0.1 wt %): 97.9% | Purity at Day 3 ([1]; 1 wt %): 95.3% | Purity at Day 7 ([1]; 1 wt %): 92.9% | Purity at Day 14 ([1]; 1 wt %): 88.9% | Purity at Day 21 ([1]; 1 wt %): 84.6% | Purity at Day 28 ([1]; 1 wt %): 79.2% | Purity at hr 0 ([1]; 1 wt %): 98.0% | Purity at Day 3 ([1]; 3 wt %): 96.3% | Purity at Day 7 ([1]; 3 wt %): 95.1% | Purity at Day 14 ([1]; 3 wt %): 92.5% | Purity at Day 21 ([1]; 3 wt %): 89.0% | Purity at Day 28 ([1]; 3 wt %): 85.7% | Purity at hr 0 ([1]; 3 wt %): 98.4% | Purity at Day 3 ([1]; 5 wt %): 98.2% | Purity at Day 7 ([1]; 5 wt %): 97.8% | Purity at Day 14 ([1]; 5 wt %): 97.0% | Purity at Day 21 ([1]; 5 wt %): 96.3% | Purity at Day 28 ([1]; 5 wt %): 95.0% | Purity at hr 0 ([1]; 5 wt %): 98.5% | Purity at Day 3 ([1]; 7 wt %): 98.6% | Purity at Day 7 ([1]; 7 wt %): 98.2% | Purity at Day 14 ([1]; 7 wt %): 98.0% | Purity at Day 21 ([1]; 7 wt %): 97.7% | Purity at Day 28 ([1]; 7 wt %): 97.4% | Purity at hr 0 ([1]; 7 wt %): 98.8% | Purity at Day 3 ([1]; 8 wt %): 98.7% | Purity at Day 7 ([1]; 8 wt %): 98.3% | Purity at Day 14 ([1]; 8 wt %): 97.9% | Purity at Day 21 ([1]; 8 wt %): 97.7% | Purity at Day 28 ([1]; 8 wt %): 97.5% | Purity at hr 0 ([1]; 8 wt %): 98.7% | Purity at Day 3 ([1]; 10 wt %): 98.6% | Purity at Day 7 ([1]; 10 wt %): 98.5% | Purity at Day 14 ([1]; 10 wt %): 98.2% | Purity at Day 21 ([1]; 10 wt %): 97.8% | Purity at Day 28 ([1]; 10 wt %): 97.4% | Purity at hr 0 ([1]; 10 wt %): 98.8% | Purity at Day 3 ([1]; 15 wt %): 98.7% | Purity at Day 7 ([1]; 15 wt %): 98.4% | Purity at Day 14 ([1]; 15 wt %): 98.1% | Purity at Day 21 ([1]; 15 wt %): 97.9% | Purity at Day 28 ([1]; 15 wt %): 97.5% | Purity at hr 0 ([1]; 15 wt %): 98.8% | Purity at Day 3 ([1]; 20 wt %): 98.7% | Purity at Day 7 ([1]; 20 wt %): 98.5% | Purity at Day 14 ([1]; 20 wt %): 98.2% | Purity at Day 21 ([1]; 20 wt %): 97.8% | Purity at Day 28 ([1]; 20 wt %): 97.5% | Purity at hr 0 ([1]; 20 wt %): 98.7% | Purity at Day 3 ([1]; 30 wt %): 98.7% | Purity at Day 7 ([1]; 30 wt %): 98.5% | Purity at Day 14 ([1]; 30 wt %): 98.3% | Purity at Day 21 ([1]; 30 wt %): 97.9% | Purity at Day 28 ([1]; 30 wt %): 97.6% | Purity at hr 0 ([1]; 30 wt %): 98.8% | Purity at Day 3 ([1]; 50 wt %): 98.7% | Purity at Day 7 ([1]; 50 wt %): 98.5% | Purity at Day 14 ([1]; 50 wt %): 98.2% | Purity at Day 21 ([1]; 50 wt %): 97.8% | Purity at Day 28 ([1]; 50 wt %): 97.5% | Purity at hr 0 ([1]; 50 wt %): 98.8% | Stability when the concentration is 0.1% or lower [1]: not stable | Stability of the solution at a temperature higher than 40° C. and a pH lower than 3 or greater than 6 [2]: not stable
SMILES: CCN(CC)CCOC(=O)CCc1nc(-c2ccccc2)c(-c2ccccc2)o1.Cl [2-(diethylamino)ethyl 4,5-diphenyl-2-oxazolepropionate•HCl]

Purity at Day 3 ([1]; 0.01 wt %): 84.7% | Purity at Day 7 ([1]; 0.01 wt %): 73.9% | Purity at Day 14 ([1]; 0.01 wt %): 62.3% | Purity at Day 21 ([1]; 0.01 wt %): 53.9% | Purity at Day 28 ([1]; 0.01 wt %): 45.9% | Purity at hr 0 ([1]; 0.01 wt %): 97.7% | Purity at Day 3 ([1]; 0.1 wt %): 96.7% | Purity at Day 7 ([1]; 0.1 wt %): 95.5% | Purity at Day 14 ([1]; 0.1 wt %): 91.1% | Purity at Day 21 ([1]; 0.1 wt %): 87.2% | Purity at Day 28 ([1]; 0.1 wt %): 83.8% | Purity at hr 0 ([1]; 0.1 wt %): 97.9% | Purity at Day 3 ([1]; 1 wt %): 97.0% | Purity at Day 7 ([1]; 1 wt %): 96.0% | Purity at Day 14 ([1]; 1 wt %): 94.0% | Purity at Day 21 ([1]; 1 wt %): 92.3% | Purity at Day 28 ([1]; 1 wt %): 90.9% | Purity at hr 0 ([1]; 1 wt %): 98.1% | Purity at Day 3 ([1]; 3 wt %): 97.7% | Purity at Day 7 ([1]; 3 wt %): 97.0% | Purity at Day 14 ([1]; 3 wt %): 96.0% | Purity at Day 21 ([1]; 3 wt %): 94.8% | Purity at Day 28 ([1]; 3 wt %): 93.8% | Purity at hr 0 ([1]; 3 wt %): 98.3% | Purity at Day 3 ([1]; 5 wt %): 98.2% | Purity at Day 7 ([1]; 5 wt %): 98.0% | Purity at Day 14 ([1]; 5 wt %): 97.6% | Purity at Day 21 ([1]; 5 wt %): 97.0% | Purity at Day 28 ([1]; 5 wt %): 96.3% | Purity at hr 0 ([1]; 5 wt %): 98.4% | Purity at Day 3 ([1]; 7 wt %): 98.4% | Purity at Day 7 ([1]; 7 wt %): 98.2% | Purity at Day 14 ([1]; 7 wt %): 98.0% | Purity at Day 21 ([1]; 7 wt %): 97.8% | Purity at Day 28 ([1]; 7 wt %): 97.4% | Purity at hr 0 ([1]; 7 wt %): 98.5% | Purity at Day 3 ([1]; 8 wt %): 98.4% | Purity at Day 7 ([1]; 8 wt %): 98.3% | Purity at Day 14 ([1]; 8 wt %): 98.0% | Purity at Day 21 ([1]; 8 wt %): 97.9% | Purity at Day 28 ([1]; 8 wt %): 97.5% | Purity at hr 0 ([1]; 8 wt %): 98.4% | Purity at Day 3 ([1]; 10 wt %): 98.4% | Purity at Day 7 ([1]; 10 wt %): 98.3% | Purity at Day 14 ([1]; 10 wt %): 98.2% | Purity at Day 21 ([1]; 10 wt %): 98.0% | Purity at Day 28 ([1]; 10 wt %): 97.5% | Purity at hr 0 ([1]; 10 wt %): 98.5% | Purity at Day 3 ([1]; 15 wt %): 98.4% | Purity at Day 7 ([1]; 15 wt %): 98.2% | Purity at Day 14 ([1]; 15 wt %): 98.1% | Purity at Day 21 ([1]; 15 wt %): 98.0% | Purity at Day 28 ([1]; 15 wt %): 97.6% | Purity at hr 0 ([1]; 15 wt %): 98.5% | Purity at Day 3 ([1]; 20 wt %): 98.4% | Purity at Day 7 ([1]; 20 wt %): 98.2% | Purity at Day 14 ([1]; 20 wt %): 98.2% | Purity at Day 21 ([1]; 20 wt %): 98.1% | Purity at Day 28 ([1]; 20 wt %): 97.5% | Purity at hr 0 ([1]; 20 wt %): 98.4% | Purity at Day 3 ([1]; 30 wt %): 98.4% | Purity at Day 7 ([1]; 30 wt %): 98.3% | Purity at Day 14 ([1]; 30 wt %): 98.1% | Purity at Day 21 ([1]; 30 wt %): 98.1% | Purity at Day 28 ([1]; 30 wt %): 97.5% | Purity at hr 0 ([1]; 30 wt %): 98.5% | Purity at Day 3 ([1]; 50 wt %): 98.5% | Purity at Day 7 ([1]; 50 wt %): 98.3% | Purity at Day 14 ([1]; 50 wt %): 98.1% | Purity at Day 21 ([1]; 50 wt %): 97.8% | Purity at Day 28 ([1]; 50 wt %): 97.6% | Purity at hr 0 ([1]; 50 wt %): 98.5% | Stability when the concentration is 0.1% or lower [1]: not stable | Stability of the solution at a temperature higher than 40° C. and a pH lower than 3 or greater than 6 [2]: not stable
SMILES: CCN(CC)CCOC(=O)CCc1ccc2cc(OC)ccc2c1.Cl [2-(diethylamino)ethyl 3-(6-methoxy-2-naphthyl)propionate•HCl]
